Assays:
Assay type in all cases: biochemical
Recombinant human HDAC1 = biological target: T1, Recombinant human HDAC1 (Homo sapiens, UniProt Q13547); test: Human HDAC enzyme inhibitor Fluor-de-Lys assay, HDAC1
T1 construct: FLAG (C); made in house
Method: (§1) Human HDAC Enzyme Inhibitor Fluor-De-Lys Assay
(§2) Recombinant human HDAC8 (BML-SE145-0100) and HDAC10 (BML-SE559-0050) enzymes, HDAC substrates BML-KI104 and BML-KI178, and HDAC developer solutions BML-KI105 and BML-KI176 were purchased from Enzo Life Sciences. […] HDAC inhibitor suberoylanilide hydroxamic acid (SAHA) was obtained from Indofine and trichostatin A (TSA) was obtained from Sigma-Aldrich.
(§3) Recombinant human HDAC1, HDAC2, and HDAC3/SMRT heterodimer were prepared by Merck Research Laboratories. […] The eluted protein was then passed over an anti-HDAC1 immunoaffinity column to remove any complexes containing HDAC1. […]
(§4) The histone deacetylase activities of HDAC1, HDAC2, HDAC3, HDAC6, and HDAC8 were measured in modified FLUOR DE LYS assays in 384-well format. In this assay, HDAC enzymes are initially incubated with an ε-acetyl (or -trifluoroacetyl)-L-lysine-containing substrate with a C-terminal amide having aminomethylcoumarin as the amine component. HDACs cleave the ε-acetyl group, rendering the resulting product susceptible to AMC cleavage by trypsin. The released AMC is then detected by its fluorescence.
(§5) The HDAC3/SMRT assay employed buffer B, consisting of 20 mM HEPES, pH 8.0, 1 mM MgCl2, 50 mM NaCl, 2.7 mM KCl, 0.05% BSA, 0.005% Tween 20, and 10 μM IP4. […] The HDAC8 assay employed buffer D, consisting of 20 mM HEPES, pH 8.0, 1 mM MgCl2, 100 mM NaCl, 20 mM KCl, 0.10% n-octyl-β-D-glucoside (Anatrace) and 0.05% BSA. All steps were performed at room temperature (23° C.). The assay was performed by pre-incubating serial dilutions of test compounds with the target HDAC prior to initiation with substrate. Each compound was titrated in a 10-point dose response, using a 1:3 fold dilution scheme, with 0.15 ul of solution added by ECH0555 to the plate, followed by the addition of 20 μl of the appropriate HDAC isoform diluted in appropriate assay buffer. […] Final conditions used for each assay were: 1. HDAC 1, 0.3 nM total enzyme, 20 μM substrate BML-KI104; 2. […] HDAC 3/SMRT, 0.3 nM total enzyme, 20 μM substrate BML-KI104; 4. […] The reactions were stopped and developed by addition of 30 ul of HDAC developer solution containing a saturating level of HDAC inhibitor as follows: 1.

Recombinant human HDAC2 = biological target: T2, Recombinant human HDAC2 (Homo sapiens, UniProt Q92769); test: Human HDAC enzyme inhibitor Fluor-de-Lys assay, HDAC2
T2 construct: Full length human HDAC2-FLAG was expressed in baculovirus infected Sf9 cells; FLAG (C); made in house; host or cells: Sf9 (baculovirus)
Method: as §1, §2, §3, §4, §5

HDAC6 = biological target: T3, HDAC6 (Homo sapiens, UniProt Q9UBN7); test: Human HDAC enzyme inhibitor Fluor-de-Lys assay, HDAC6
T3 sequence (Q9UBN7 1-1215): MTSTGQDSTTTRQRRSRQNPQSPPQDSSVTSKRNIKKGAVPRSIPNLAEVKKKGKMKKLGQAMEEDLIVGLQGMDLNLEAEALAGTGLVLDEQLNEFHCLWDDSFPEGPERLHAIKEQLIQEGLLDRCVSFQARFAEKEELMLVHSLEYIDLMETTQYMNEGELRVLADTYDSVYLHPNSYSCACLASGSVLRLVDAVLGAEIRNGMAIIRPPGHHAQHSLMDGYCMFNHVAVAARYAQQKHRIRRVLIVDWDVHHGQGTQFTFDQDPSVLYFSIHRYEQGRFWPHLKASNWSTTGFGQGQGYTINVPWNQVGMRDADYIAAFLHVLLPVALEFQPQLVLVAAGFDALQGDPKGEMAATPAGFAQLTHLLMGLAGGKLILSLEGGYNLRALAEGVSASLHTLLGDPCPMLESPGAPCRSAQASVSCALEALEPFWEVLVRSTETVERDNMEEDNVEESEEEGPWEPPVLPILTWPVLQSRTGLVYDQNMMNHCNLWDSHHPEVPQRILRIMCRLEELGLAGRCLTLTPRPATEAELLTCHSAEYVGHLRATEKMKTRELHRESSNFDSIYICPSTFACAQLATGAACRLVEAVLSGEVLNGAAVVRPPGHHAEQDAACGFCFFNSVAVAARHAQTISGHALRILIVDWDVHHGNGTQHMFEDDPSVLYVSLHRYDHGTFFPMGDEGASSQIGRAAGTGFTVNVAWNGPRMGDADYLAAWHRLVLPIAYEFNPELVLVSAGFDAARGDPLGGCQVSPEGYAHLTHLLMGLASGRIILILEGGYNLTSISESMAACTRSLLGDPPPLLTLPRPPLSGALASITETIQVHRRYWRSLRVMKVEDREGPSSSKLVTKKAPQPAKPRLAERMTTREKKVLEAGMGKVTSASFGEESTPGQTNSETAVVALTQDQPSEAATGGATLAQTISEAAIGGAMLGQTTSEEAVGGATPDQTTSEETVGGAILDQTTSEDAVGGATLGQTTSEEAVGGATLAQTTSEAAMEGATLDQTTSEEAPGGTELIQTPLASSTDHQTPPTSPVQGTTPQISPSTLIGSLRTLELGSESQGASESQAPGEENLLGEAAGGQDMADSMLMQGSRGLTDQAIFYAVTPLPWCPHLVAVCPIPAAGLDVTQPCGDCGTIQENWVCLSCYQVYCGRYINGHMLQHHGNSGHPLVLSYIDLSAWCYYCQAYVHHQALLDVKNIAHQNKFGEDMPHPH

T2 sequence (Q92769 whole entry): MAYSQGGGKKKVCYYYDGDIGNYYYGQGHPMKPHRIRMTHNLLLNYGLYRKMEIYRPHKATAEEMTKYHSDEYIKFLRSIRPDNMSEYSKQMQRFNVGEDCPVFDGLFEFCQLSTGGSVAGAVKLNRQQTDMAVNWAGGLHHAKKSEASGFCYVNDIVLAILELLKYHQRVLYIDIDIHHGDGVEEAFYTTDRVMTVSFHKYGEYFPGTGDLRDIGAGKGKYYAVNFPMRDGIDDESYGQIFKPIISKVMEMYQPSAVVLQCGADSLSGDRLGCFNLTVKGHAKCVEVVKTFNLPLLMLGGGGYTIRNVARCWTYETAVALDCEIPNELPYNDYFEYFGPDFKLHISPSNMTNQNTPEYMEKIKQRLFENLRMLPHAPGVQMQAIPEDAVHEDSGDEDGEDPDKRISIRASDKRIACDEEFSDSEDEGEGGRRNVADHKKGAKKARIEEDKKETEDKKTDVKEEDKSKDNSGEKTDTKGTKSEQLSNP
T1 sequence (Q13547 whole entry): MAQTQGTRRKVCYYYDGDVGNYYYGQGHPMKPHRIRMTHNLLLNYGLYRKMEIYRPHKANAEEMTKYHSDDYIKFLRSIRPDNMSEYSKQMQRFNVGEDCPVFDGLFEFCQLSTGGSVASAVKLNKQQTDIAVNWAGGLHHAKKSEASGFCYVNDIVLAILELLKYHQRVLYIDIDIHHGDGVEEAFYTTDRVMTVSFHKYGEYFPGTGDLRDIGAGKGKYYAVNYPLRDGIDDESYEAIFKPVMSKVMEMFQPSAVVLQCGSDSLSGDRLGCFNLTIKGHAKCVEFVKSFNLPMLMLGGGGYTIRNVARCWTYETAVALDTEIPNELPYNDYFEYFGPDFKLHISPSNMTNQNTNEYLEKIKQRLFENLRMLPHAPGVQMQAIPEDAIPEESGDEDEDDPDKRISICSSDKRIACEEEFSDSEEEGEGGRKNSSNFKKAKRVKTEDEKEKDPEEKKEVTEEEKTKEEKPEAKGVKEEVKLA

CCC(=O)CCCCC[C@H](NC(=O)C1CC12CCN(C)C(C)(C)C2)c1ncc(-c2ccc3nc(C)ccc3c2)[nH]1 (single isomer, unassigned) [Compound 130]
IC50 (Recombinant human HDAC1): 5.6 nM
IC50 (Recombinant human HDAC2): 15.3 nM
IC50 (HDAC6): 2.12 µM

CCC(=O)CCCCC[C@H](NC(=O)C1CC12CCN(C)C(C)(C)C2)c1ncc(-c2ccc3nc(C)ccc3c2)[nH]1 (single isomer, unassigned) [Compound 131]
IC50 (Recombinant human HDAC1): 0.48 nM
IC50 (Recombinant human HDAC2): 2.5 nM
IC50 (HDAC6): 2.28 µM

CCC(=O)CCCCC[C@H](NC(=O)C1CC12CCN(C)C(C)(C)C2)c1ncc(-c2ccc3nc(C)ccc3c2)[nH]1 (single isomer, unassigned) [Compound 132]
IC50 (Recombinant human HDAC1): 2.33 nM
IC50 (Recombinant human HDAC2): 6.5 nM
IC50 (HDAC6): 3.68 µM

CCC(=O)CCCCC[C@H](NC(=O)C1CC12CCN(C)C(C)(C)C2)c1ncc(-c2ccc3nc(C)ccc3c2)[nH]1 (single isomer, unassigned) [Compound 133]
IC50 (Recombinant human HDAC1): < 1.5 nM
IC50 (Recombinant human HDAC2): 2.1 nM
IC50 (HDAC6): 0.879 µM

CCC(=O)CCCCC[C@H](NC(=O)[C@@]1(C)CC12CCN(C(C)C)CC2)c1ncc(-c2ccc3nc(C)ccc3c2)[nH]1 (single isomer, unassigned) [Compound 151, (1S or 1R)-1-methyl-6-(1-methylethyl)-N-{(1S)-1-[5-(2-methylquinolin-6-yl)-1H-imidazol-2-yl]-7-oxononyl}-6-azaspiro[2.5]octane-1-carboxamide]
IC50 (Recombinant human HDAC1): 5.74 nM
IC50 (Recombinant human HDAC2): 21.8 nM
IC50 (HDAC6): 5.82 µM

CCC(=O)CCCCC[C@H](NC(=O)C1(C)CC12CCN(C(C)C)CC2)c1ncc(-c2ccc3nc(C)ccc3c2)[nH]1 (single isomer, unassigned) [Compound 152, (1S or 1R)-1-methyl-6-(1-methylethyl)-N-{(1S)-1-[5-(2-methylquinolin-6-yl)-1H-imidazol-2-yl]-7-oxononyl}-6-azaspiro[2.5]octane-1-carboxamide]
IC50 (Recombinant human HDAC1): 0.94 nM
IC50 (Recombinant human HDAC2): 4 nM
IC50 (HDAC6): 19.2 µM

CCC(=O)CCCCC[C@H](NC(=O)C1CC12CC1CCC(C2)N1C)c1ncc(-c2ccc3ncccc3c2)[nH]1 (single isomer, unassigned) [Compound 166]
IC50 (Recombinant human HDAC1): 0.37 nM
IC50 (Recombinant human HDAC2): 2.2 nM
IC50 (HDAC6): 0.229 µM

CCC(=O)CCCCC[C@H](NC(=O)C1CN(C)C1)c1[nH]c(-c2ccc(F)cc2)nc1Br [Compound 65, N-{(1S)-1-[4-bromo-2-(4-fluorophenyl)-1H-imidazol-5-yl]-7-oxononyl}-1-methylazetidine-3-carboxamide]
IC50 (Recombinant human HDAC1): 44.9 nM
IC50 (Recombinant human HDAC2): 306 nM
IC50 (HDAC6): > 45 µM

CCC(=O)CCCCC[C@H](NC(=O)[C@H]1CC12CCN(C)CC2)c1ncc(-c2ccc3nc(N(C)C)ccc3c2)[nH]1 [Compound 66, (1S)—N-[(1S)-1-{5-[2-(dimethylamino)quinolin-6-yl]-1H-imidazol-2-yl}-7-oxononyl]-6-methyl-6-azaspiro[2.5]octane-1-carboxamide]
IC50 (Recombinant human HDAC1): 147 nM
IC50 (Recombinant human HDAC2): > 900 nM
IC50 (HDAC6): > 0.45 µM

CCC(=O)CCCCC[C@H](NC(=O)[C@H]1CC12CCN(C)CC2)c1ncc(-c2cnc3cccnc3c2)[nH]1 [Compound 67]
IC50 (Recombinant human HDAC1): 19.6 nM
IC50 (Recombinant human HDAC2): 101 nM
IC50 (HDAC6): 1.28 µM

CN1CCC2(CC1)C[C@@H]2C(=O)N[C@@H](CCCCCC(=O)CC(F)(F)F)c1ncc(-c2ccc(F)cc2)[nH]1 [Compound 68]
IC50 (Recombinant human HDAC1): 8.74 nM
IC50 (Recombinant human HDAC2): 126 nM
IC50 (HDAC6): 6.81 µM

CCC(=O)CCCCC[C@H](NC(=O)C1CN(C)C1)c1ncc(-c2ccc3c(c2)C2CCC3C2)[nH]1 (stereo partly drawn) [Compound 73, 1-methyl-N-{(1S)-7-oxo-1-[5-(1,2,3,4-tetrahydro-1,4-methanonaphthalen-6-yl)-1H-imidazol-2-yl]nonyl}azetidine-3-carboxamide]
IC50 (Recombinant human HDAC1): 31 nM
IC50 (Recombinant human HDAC2): 138 nM
IC50 (HDAC6): 6.51 µM

CCC(=O)CCCCC[C@H](NC(=O)[C@H]1CC12CCN(C)CC2)c1ncc(-c2ccc3c(c2)C2CCC3C2)[nH]1 (stereo partly drawn) [Compound 74]
IC50 (Recombinant human HDAC1): 8.21 nM
IC50 (Recombinant human HDAC2): 36.2 nM
IC50 (HDAC6): 7.85 µM

CCC(=O)CCCCC[C@H](NC(=O)[C@H]1CC12CCN(C)CC2)c1nc(F)c(-c2cc3ccccc3nc2OC)[nH]1 [Compound 75]
IC50 (Recombinant human HDAC1): 29.3 nM
IC50 (Recombinant human HDAC2): 101 nM
IC50 (HDAC6): > 45 µM

CCC(=O)CCCCC[C@H](NC(=O)[C@H]1CC12CCN(C)CC2)c1[nH]c(-c2ccc(F)cc2)nc1C#N [Compound 76]
IC50 (Recombinant human HDAC1): 3.85 nM
IC50 (Recombinant human HDAC2): 19.7 nM
IC50 (HDAC6): 26.6 µM

CCC(=O)CCCCC[C@H](NC(=O)[C@H]1CC12CCN(C)CC2)c1ncc(-c2cc3ccccc3nc2OC)o1 [Compound 77]
IC50 (Recombinant human HDAC1): 1.53 nM
IC50 (Recombinant human HDAC2): 4.8 nM
IC50 (HDAC6): 0.198 µM

CCC(=O)CCCCC[C@H](NC(=O)[C@H]1CC12CCN(CC)CC2)c1ncc(-c2ccc3nc(C4CC4)ccc3c2)[nH]1 [Compound 101]
IC50 (Recombinant human HDAC1): < 1.5 nM
IC50 (Recombinant human HDAC2): < 1.5 nM
IC50 (HDAC6): 7.37 µM

CCC(=O)CCCCC[C@H](NC(=O)[C@H]1CC12CCN(CC1CC1)CC2)c1ncc(-c2ccc3nc(C4CC4)ccc3c2)[nH]1 [Compound 104]
IC50 (Recombinant human HDAC1): < 1.5 nM
IC50 (Recombinant human HDAC2): < 1.5 nM
IC50 (HDAC6): 5.3 µM

CCC(=O)CCCCC[C@H](NC(=O)C1=NOC2(CCN(C)CC2)C1)c1ncc(-c2cc3ccccc3nc2OC)[nH]1 [Compound 105]
IC50 (Recombinant human HDAC1): 0.92 nM
IC50 (Recombinant human HDAC2): 5.3 nM
IC50 (HDAC6): 1.51 µM

CCC(=O)CCCCC[C@H](NC(=O)C1=NOC2(CCN(C(C)C)CC2)C1)c1ncc(-c2cc3ccccc3nc2OC)[nH]1 [Compound 106, N-{(1S)-1-[5-(2-methoxyquinolin-3-yl)-1H-imidazol-2-yl]-7-oxononyl}-8-(1-methylethyl)-1-oxa-2,8-diazaspiro[4.5]dec-2-ene-3-carboxamide]
IC50 (Recombinant human HDAC1): 1.73 nM
IC50 (Recombinant human HDAC2): 7.9 nM
IC50 (HDAC6): 1.46 µM

CCC(=O)CCCCC[C@H](NC(=O)[C@H]1CC12CCN(C)CC2)c1ncc(-c2ccc3c(ccc(=O)n3C)c2)o1 [Compound 109]
IC50 (Recombinant human HDAC1): 3.52 nM
IC50 (Recombinant human HDAC2): 9.4 nM
IC50 (HDAC6): 13.4 µM

CCC(=O)CCCCC[C@H](NC(=O)[C@H]1CC12CCN(C)CC2)c1ncc(-c2ccc3cnc(OC)cc3c2)[nH]1 [Compound 113]
IC50 (Recombinant human HDAC1): 1.37 nM
IC50 (Recombinant human HDAC2): 6.6 nM
IC50 (HDAC6): > 4.5 µM

CCC(=O)CCCCC[C@H](NC(=O)[C@H]1CC12CCN(CC)CC2)c1ncc(-c2ccc3nc(C4CC4)ccc3c2)o1 [Compound 114]
IC50 (Recombinant human HDAC1): 1.12 nM
IC50 (Recombinant human HDAC2): 4.7 nM
IC50 (HDAC6): 4.09 µM

Source: patent US12590099B2, “Inhibitors of histone deacetylase useful for the treatment or prevention of HIV infection” (Merck Sharp & Dohme LLC, priority 2018, dated 2026)
